This is an account of results in patent publication US20240342168A1, “SMALL MOLECULE INHIBITORS FOR ANTI-CANCER COMBINATION THERAPY” (UNIVERSITY OF CAPE TOWN, priority 2021, published 2024).

Assay [1] has as its system HeLa cells. Description: Caspase-3/7 assay (Caspase-Glo 3/7). To be noted: INI-43 pre-treatment plus cisplatin, 48 h. The format is cell-based. The method, then: (§1) Cells were subjected to single or CT for 48 h, and caspase-3/7 activity monitored using the Promega Caspase-Glo^R 3/7 assay, according to the manufacturer's instructions. Luminescence was measured using the Veritas™ microplate luminometer (Promega) and results standardized to viable cells in each treatment as determined by MTT assays performed in parallel.

The subject of assay [2] is SiHa cells. The assay is described as follows: Caspase-3/7 assay (Caspase-Glo 3/7). The format is cell-based. As to conditions: INI-43 pre-treatment plus cisplatin, 48 h. Here is the method: as §1
Assay [3] relates to HeLa cells. Description: PARP cleavage by Western blot. The format is cell-based. Here is the method: (§2) For protein extraction, cells were washed with PBS and lysed using RIPA buffer (50 mM Tris-CI, pH 7.4, 150 mM NaCl, 1% (w/v) sodium deoxycholate, 0.1% (v/v) SDS, 1% (v/v) Triton X-100, 2 mM EGTA, 2 mM EDTA, 50 mM NaF, 5 mM Na2P2O7, 1× complete protease inhibitor cocktail (Roche) and 0.1 M Sodium Orthovanadate). For PARP cleavage analysis, dead cells were collected by centrifugation and combined with live cell lysates. Lysates were sonicated, centrifuged, and the supernatant quantified using the BCA Protein Assay Kit (Pierce, Thermo Scientific) according to the manufacturer's instructions. Proteins were subjected to Western blot analysis using the following antibodies: rabbit anti-Kpnβ1 (H-300, sc-11,367, Santa Cruz), rabbit anti-β-tubulin (H-235, sc-9104, Santa Cruz), rabbit anti-PARP1/2 antibody (H-250, sc-7150, Santa Cruz), mouse anti-GAPDH (0411, sc-47,724, Santa Cruz), rabbit anti-p21 (H-164, sc-756, Santa Cruz), rabbit anti-Mcl-1 (H-260, sc-20,679, Santa Cruz), mouse anti-cyclin D1 (HD11, sc-246, Santa Cruz), rabbit anti-c-Myc (N-262, sc-764, Santa Cruz), mouse anti-p53 (DO-7, M7001, DakoCytomation), mouse anti-XIAP (610,763, BD Biosciences), and rabbit anti-phospho-Histone H2AX (γH2AX, Ser139, 20E3, #9718, Cell Signal).
On the technique in general: Immunoblotting shows a protein as a band on a membrane.

Assay [4] relates to SiHa cells. Description: PARP cleavage by Western blot. The format is cell-based. The method, then:
as §2

The subject of another assay is HeLa. Description: Combination index (CI) determination, Chou-Talalay method. The format is cell-based. As to conditions: HeLa cervical cancer cell line. The method, then: (§3) To elucidate the nature of the combined use of INI-43 and cisplatin, the Chou-Talalay method was adopted (Chou T C, Talalay P. Quantitative analysis of dose-effect relationships: the combined effects of multiple drugs or enzyme inhibitors. Adv Enzym Regul. 1984; 22:27-55). Cell viability was determined after 48-h treatment at fixed INI-43 to cisplatin ratios of 1:3, 1:4 and 1:5 (Table 1 below). Cell viability was converted to fraction affected (Fa) and CI calculated using CompuSyn software (ComboSyn, Inc.).

The subject of another assay is Kyse 30. The assay is described as above. Type of assay: cell-based. As to conditions: Kyse 30 oesophageal cancer cell line. Here is the method:
as §3

A further assay deals with Mel 80. Described as above. As to conditions: Mel 80 cervical cancer cell line. The format is cell-based. The method, then: as §3
In assay [5] the test system is SiHa cells. Described as above. The format is cell-based. To be noted: INI-43 to cisplatin ratios 1:3, 1:4 and 1:5, at Fa>0.2, 2 h pre-incubation, 48 h. The method, then:
as §3

The subject of another assay is WHC05. Described as above. As to conditions: WHC05 oesophageal cancer cell line. The format is cell-based. Here is the method: as §3
The test system of the next assay is p53 in SiHa cells. Description: p53 half-life determination (cycloheximide chase, Western blot). The format is cell-based. To be noted: 5 μM INI-43 2 h vs DMSO, then 50 μg/mL CHX. The method, then:
Cells were treated with 5 μM INI-43 or DMSO for 2 hours or transfected with 20 nM si-ctrl or si-Kpnβ1 for 48 h prior to p53 half-life determination. Cells were treated with 50 μg/mL cycloheximide (CHX), and protein harvested at 0, 15, 30, 45, 60 and 90 min after CHX treatment. p53 content was analysed by western blotting. Bands were quantified by densitometrical scanning using ImageJ, normalised to GAPDH and expressed as a value relative to p53 intensity at time 0. Relative band intensities were plotted in log scale against time of CHX treatment and a linear trendline drawn. The half-life was calculated using the formula T1/2 (minutes)=Log(2)/[slope].

Assay [6] relates to p65 reporter activity in SiHa cells. The assay is described as follows: p65-luciferase reporter assay. The format is cell-based. As to conditions: pre-treated with INI-43 then cisplatin. Here is the method: SiHa cells were transfected with 100 ng p65-luciferase reporter construct (containing five copies of the p65-binding site, Promega) or 200 ng p53-luciferase reporter construct (containing thirteen wildtype p53 binding sites, Addgene plasmid #16442, Addgene Plasmid Repository (el-Deiry W S, Tokino T, Velculescu V E, Levy D B, Parsons R, Trent J M, et al. WAF1, a potential mediator of p53 tumor suppression. Cell. 1993; 75(4):817-25) and 10 ng pRL-TK (encoding Renilla luciferase, Promega), using Genecellin transfection reagent (Celtic Molecular Diagnostics). The following day cells were treated with 5 μM INI-43 for 2 h, followed by 30 μM cisplatin for 24 h, and luciferase activity assayed using the Dual-Luciferase Report assay system (Promega), according to the manufacturer's instructions. Luciferase readings were measured using the Veritas™ microplate luminometer (Promega) and normalised to Renilla luciferase from the same extract.
Background: Reporter assays use an easily measured gene product as a stand-in for the process of interest.

Assay [7] has as its system p53, p21 and Mcl-1 in SiHa cells. Description: Western blot of p53 and p53 targets. The format is cell-based. The method, then:
as §2

For assay [8], the system named is cyclin D1, c-Myc and XIAP. Description: Western blot of NFκB targets. Type of assay: cell-based. As to conditions: INI-43-cisplatin combination vs single cisplatin, concentration dependent. The method, then:
as §2

The subject of another assay is NFκB-p65 in cancer cells. To be noted: van der Watt et al. 2016; cited from earlier work.
[9] abbreviates: INI-43 pre-treatment plus cisplatin.

As for `CN(C)CCCn1c(N)c(-c2nc3ccccc3[nH]2)c2nc3ccccc3nc21` [INI-43], the “increase in caspase-3/7 activation, combination vs cisplatin only” value in the assay with HeLa cells [1] turned out to be 3.6 fold; with SiHa cells [2], 2.8 fold. The “apoptosis (PARP cleavage), INI-43 on its own” value in the assay on HeLa cells [3] (5 μM INI-43) and in the assay with SiHa cells [4] (5 μM INI-43) was “negligible apoptosis” each time. Further, the “PARP cleavage, combination treated vs cisplatin only” value in the assay with HeLa cells [3] (setting [9]) and in the assay with SiHa cells [4] (setting [9]) was “enhanced PARP cleavage” in each case. Moreover, the “nature of INI-43 and cisplatin combination (CI)” value in the assay on HeLa, in the assay with Kyse 30, in the assay with Mel 80 and with WHC05 was “synergism” each time. The “combination index (CI) values” with SiHa cells [5] is “below 1”. In the assay with p53 in SiHa cells, the “increase in p53 half-life” value is reported as roughly 2.9 fold. Besides, the “cisplatin-induced increase in p65 activity” value in assay [6] is “reduced”. Besides, in assay [7] (60 μM cisplatin), the “Mcl-1 levels, INI-43 and cisplatin vs single cisplatin” value is “reduced”. Further, the “p21 levels, INI-43 and cisplatin vs single cisplatin” value in assay [7] (30 and 60 μM cisplatin) was “elevated”. Moreover, the p53 protein levels entry in assay [7] (SiHa, treatment with INI-43 and cisplatin) is on record as “increased”. Further, in assay [8], the “levels of cyclin D1, c-Myc and XIAP” value was “all reduced”. For the same compound, the “PMA-stimulated nuclear entry of NFκB-p65” value with NFκB-p65 in cancer cells is given as “prohibited”.
